As usually defined, the EC50 is the midpoint of the concentration-response curve. High values mean weaker potency, low ones greater potency.

The values below come from US4990534A, “Aralkyl esters and processes for their preparation” (priority 1987, dated 1991).

Where two headings read alike, the source gives them in different places.

Assay [1] deals with synaptosomal uptake, noradrenalin. The assay is described as follows: Inhibition of synaptosomal uptake of noradrenalin. Type of assay: biochemical. As to conditions: rat cerebral cortex synaptosomes, 50 nM [3H]noradrenaline, pH 7.4, 37° C. The method, then: (§1) Inhibition of the Synaptosomal Uptake of Monoamines
(§2) Crude synaptosome preparations from rat cerebral cortex were made by homogenizing the tissues in 10 volumes of ice-cold 0.32M sucrose with all-glass Potter'-Elvehjem's homogenizers. The homogenates were centrifuged at 800 g at +2° C. for 10 min. The supernatants were centrifuged at 12000 g at +2° C. for 10 min, and the pellets were rehomogenized in 0.32M sucrose to the original volume. The incubation of the preparations with [^14 C]serotonin plus [^3 H]noradrenaline with final concentrations of 50 nM of each amine was performed in a Micronic PPN Storage-Block-96 (Flow Laboratories) with 8×12 wells using two rows at each incubation. Four to five different concentrations of two test compounds in duplicates were examined at each incubation. Fifty microliters of the synaptosomal preparation, 400 μl of the Krebs-Henseleit's buffer, pH 7.4, containing 5.6 mM glucose, 1.1 mM ascorbic acid, 0.13 mM disodium edetate, and 50 μM pargyline, and 25 μl of the inhibitor or distilled water were added to the wells. The solutions were mixed by vortexing the block for 10 s. After 10-min preincubation at 37° C. in a water bath, 25 μl of the solutions of the radioactively labeled amines was added to the two rows with a Titretec Multicannel Pipette, type 12-Channel (Flow Laboratories). The reaction was immediately started by vortexing the block for 10 s on a Super-Mixer, and the incubation was continued for 2 min at 37° C. The uptake reaction was stopped by filtration and washing for 15 s with ice-cold 0.15M NaCl through a Whatman GF/B glass filter paper in a 24-channel Cell Harvester (Brandel) using the standard harvesting probe. The filters were left to dry in room temperature for about 1 h. The punched filters were transformed to counting vials, 10 mL of the scintillation liquid (Aquasol, NEN) was added, and vials were shaken and allowed to stand for 1 h before counting. The radioactivety was measured in a Packard Tri Carb liquid scintillation photometer. The active uptake of the amines was defined as the difference between the accumulation of the radioactivity in the absence (quadriplicates) and the presence (quadriplicates) of selective uptake inhibitors, determined at each incubation. These inhibitors were citalopram (0.3 μM) for the serotonin uptake and maprotiline (1 μM) for the norepinephrine uptake. The inhibition was calculated in percent of the active uptake. The IC50 values were obtained from log concentration-response curves.

For assay [2], the system named is synaptosomal uptake, serotonin. Briefly: Inhibition of synaptosomal uptake of serotonin. Type of assay: biochemical. Conditions: rat cerebral cortex synaptosomes, 50 nM [14C]serotonin, pH 7.4, 37° C. The method, then:
as §1, §2

The test system of assay [3] is cholinergic responses (oxotremorine-induced tremor). The assay is described as follows: Potentiation of oxotremorine-induced tremor in rats. As to conditions: for minimal effective dose: Rattus norvegicus. Type of assay: in vivo, rat (Sprague Dawley). The method, then:
Potentiation of cholinergic responses
Studies on oxotremorine-induced tremor in rats
Male rats (Sprague Dawley Alab Laboratorietjanst AB, Sollentuna, Sweden) weighing 150-180 g, 35-40 days of age, were used. The animals were allowed free access to food (R3, Ewos AB, Sodertalje, Sweden) and water until the start of the experiments. The test compounds were injected intraperitoneally (i.p.) 30 min before injection of oxotremorine into the neck (s.c.). Tremor intensity was assessed visually for a 60 min period following the injection of oxotremorine in rat housed in Macrolon cages (25×25×30 cm) (tree per cage). The treshold dose of oxotremorine for eliciting tremor in rat is 200 μg/kg.
Tremor intensity was scored using the following rating scale: 0=no tremor; 1=slight tremor (moderate, discontinuous tremor); 2=strong tremor (intense, continuous tremor involving the whole body). The animals were scored 5, 10, 15, 30 and 60 min after injection of oxotremorine. The tremor was scored for a period of 30 seconds.
The values for each observation were summed over the entire observation period (5-60 min) and their median values for each group were calculated (total median score). Mann-Whitney U-test (two-tailed) was used to determine differences between the control oxotremorine group and test groups receiving the compounds+oxotremorine. It should be noted that a control group receiving oxotremorine alone was always run concurrently with each compound tested.
The lowest dose causing a significant (p<0.05) potentiation of the oxotremorine response was determined from log-dose response curves.

For assay [4], the system named is neuronal 5-hydroxytryptamine (5-HT) uptake. Conditions: U.S. Pat. No. 4 237 311; cited from earlier work.
For a further assay, the system named is central nervous system. As to conditions: man; U.S. Pat. No. 4 237 311; cited from earlier work.
The next assay deals with cholinergic responses. As to conditions: U.S. Pat. No. 4 469 707; cited from earlier work.
[5] abbreviates: i.p. 30 min before oxotremorine s.c., p<0.05, scored 5-60 min.
Where [6] appears, read: ip, read-out: Potentiation of OTMN tremor in rat (lowest dose causing a significant potentiation), i.p. 30 min before oxotremorine s.c., p<0.05, scored 5-60 min.
The mark [7] stands for this setting: ip, i.p. 30 min before oxotremorine s.c., p<0.05, scored 5-60 min, read-out: Potentiation of OTMN tremor in rat (lowest dose causing a significant potentiation).

“1-(4-Chlorophenyl)-2-methyl-2-propyl SS/RS-2-amino-3-methylpentanoate [Example 15]”: the figures for the EC50 in assay [1] and in assay [2] were 3.1 µM and 8 µM, respectively. The “Potentiation of OTMN tremor in rat (lowest dose causing a significant potentiation)” value in assay [3] (setting [5]) is 10 mg/kg.

Take `CC(C)C(N)C(=O)OC(C)(C)Cc1ccc(Cl)cc1` (single isomer, unassigned) [Example 27, 1-(4-chlorophenyl)-2-methyl-2-propyl 2-amino-3-methyl-butanoate]: the EC50 in assay [1] was found to be 1.7 µM; in assay [2] it was 3.3 µM. Besides, the “Potentiation of OTMN tremor in rat (lowest dose causing a significant potentiation)” value in assay [3] (setting [5]) stood at 10 mg/kg.

As to `CC(C)C(N)C(=O)OC(C)(C)Cc1ccc(Cl)cc1` (single isomer, unassigned; (+)) [Example 26, (+)-1-(4-Chlorophenyl)-2-methyl-2-propyl 2-amino-3-methylbutanoate], the EC50 in assay [1] came out at 1.8 µM; in assay [2], 8.7 µM. In assay [3] (setting [6]), the minimal effective dose was found to be 20 mg/kg.

Take `CC(N)C(=O)OC(C)(C)Cc1ccc(Cl)cc1` (centres unmarked) [Alaproclate, reference compound]: the EC50 in assay [1] was greater than 10 µM; in assay [2], 0.12 µM. The minimal effective dose in assay [3] (setting [6]) is 5 mg/kg. Further, the “tremor response induced by a threshold dose of oxotremorine (in words)” value in assay [3] (threshold dose of oxotremorine) is given as “enhance the tremor response”. The “effect on neuronal 5-HT uptake (in words)” value in assay [4] is “blocking the neuronal 5-hydroxytryptamine (5-HT) uptake”. In addition, the “antidepressive activity (in words)” value in the assay on central nervous system is “antidepressive activity combined with a reduced frequency of side effects”. Also, the “effect on cholinergic responses (in words)” value with cholinergic responses is reported as “potentiating effect on cholinergic responses”.

In the case of `CCC(N)C(=O)OC(C)(C)Cc1ccc(Cl)cc1` (centres unmarked) [Example 1, 1-(4-Chlorophenyl)-2-methyl-2-propyl 2-aminobutanoate], the values for the half-maximal effective concentration (EC50) in assay [1] and in assay [2] were 8 µM and 2.8 µM, respectively. Moreover, in assay [3] (setting [6]), the minimal effective dose was 2.5 mg/kg.

For the compound `CCC(N)C(=O)OC(C)(C)Cc1ccc(F)cc1` (centres unmarked) [Example 2, 1-(4-fluorophenyl)-2-methyl-2-propyl 2-aminobutanoate], the EC50 in assay [1] came out at 7 µM; in assay [2], 3 µM. Further, the minimal effective dose in assay [3] (setting [6]) worked out at 10 mg/kg.

On to `CCCC(N)C(=O)OC(C)(C)Cc1ccc(F)cc1` (centres unmarked) [Example 3, 1-(4-fluoropnenyl)-2-methyl-2-propyl 2-aminopentanoate], for which the values for the EC50 in assay [1] and in assay [2] were 3.2 µM and 6 µM, respectively. Further, the minimal effective dose in assay [3] (setting [7]) amounted to 10 mg/kg.

In the case of `CCCC(N)C(=O)OC(C)(C)Cc1ccc(Cl)cc1` (centres unmarked) [Example 4, 1-(4-Chlorophenyl)-2-methyl-2-propyl 2-aminopentanoate], the EC50 is 1.5 µM in assay [1] and 2.3 µM in assay [2]. For the same compound, the minimal effective dose in assay [3] (setting [7]) was 2.5 mg/kg.

As to `C=CCC(N)C(=O)OC(C)(C)Cc1ccc(Cl)cc1` (centres unmarked) [Example 5, 1-(4-Chlorophenyl)-2-methyl-2-propyl 2-amino-4-pentenoate], the figures for the EC50 in assay [1] and in assay [2] were 2.5 µM and 3.6 µM, respectively. Further, in assay [3] (setting [7]), the minimal effective dose was determined as 20 mg/kg.

`C#CCC(N)C(=O)OC(C)(C)Cc1ccc(Cl)cc1` (centres unmarked) [Example 7, 1-(4-Chlorophenyl)-2-methyl-2-propyl 2-amino-4-pentynoate]: the EC50 in assay [1] and in assay [2] was greater than 10 µM each time. Moreover, the minimal effective dose in assay [3] (setting [7]) was determined as 10 mg/kg.

Turning to `CC(C)CC(N)C(=O)OC(C)(C)Cc1ccc(Cl)cc1` (centres unmarked) [Example 11, 1-(4-Chlorophenyl)-2-methyl-2-propyl 2-amino-4-methylpentanoate], the EC50 in assay [1] was determined as 3.4 µM; in assay [2], 8 µM. For the same compound, the minimal effective dose in assay [3] (setting [6]) was determined as 10 mg/kg.

In the case of `CCC(C)C(N)C(=O)OC(C)(C)Cc1ccc(Cl)cc1` (centres unmarked) [Example 12, 1-(4-Chlorophenyl)-2-methyl-2-propyl 2-amino-3-methylpentanoate], the EC50 worked out at 3.2 µM in assay [1] and 6.5 µM in assay [2]. Moreover, the minimal effective dose in assay [3] (setting [6]) turned out to be 20 mg/kg.

As for `CC(C)C(N)C(=O)OC(C)(C)Cc1ccc(F)cc1` (centres unmarked) [Example 13, 1-(4-Fluorophenyl)-2-methyl-2-propyl 2-amino-3-methylbutanoate], the EC50 in assay [1] stood at 2.9 µM; in assay [2] it was 10 µM. For the same compound, in assay [3] (setting [7]), the minimal effective dose stood at 20 mg/kg.

As for `CC(C)C(N)C(=O)OC(C)(C)Cc1cc(Cl)cc(Cl)c1` (centres unmarked) [Example 14, 1-(3,5-Dichlorophenyl)-2-methyl-2-propyl 2-amino-3-methylbutanoate], the results for the EC50 in assay [1] and in assay [2] were greater than 10 µM and 4 µM, respectively. Also, in assay [3] (setting [7]), the minimal effective dose was 10 mg/kg.

Take `O=C1CCCN1CC#CCN1CCCC1` [oxotremorine, reference compound]: the minimal effective dose in assay [3] (sc, read-out: threshold dose of oxotremorine for eliciting tremor in rat, s.c., oxotremorine alone) was determined as 0.2 mg/kg.
